One may read the Km as the substrate concentration at which the rate is half of its maximum.

SMILES strings stand for the structures.

This note sets out measurements from paper PMC7915588, “Polyphyllin D Shows Anticancer Effect through a Selective Inhibition of Src Homology Region 2-Containing Protein Tyrosine Phosphatase-2 (SHP2)” (Molecules, 2021).

Test [1] concerns the target T1, SHP2 (Homo sapiens, UniProt Q06124).
T1 construct: gene PTPN11
T1 sequence (Q06124 1-526): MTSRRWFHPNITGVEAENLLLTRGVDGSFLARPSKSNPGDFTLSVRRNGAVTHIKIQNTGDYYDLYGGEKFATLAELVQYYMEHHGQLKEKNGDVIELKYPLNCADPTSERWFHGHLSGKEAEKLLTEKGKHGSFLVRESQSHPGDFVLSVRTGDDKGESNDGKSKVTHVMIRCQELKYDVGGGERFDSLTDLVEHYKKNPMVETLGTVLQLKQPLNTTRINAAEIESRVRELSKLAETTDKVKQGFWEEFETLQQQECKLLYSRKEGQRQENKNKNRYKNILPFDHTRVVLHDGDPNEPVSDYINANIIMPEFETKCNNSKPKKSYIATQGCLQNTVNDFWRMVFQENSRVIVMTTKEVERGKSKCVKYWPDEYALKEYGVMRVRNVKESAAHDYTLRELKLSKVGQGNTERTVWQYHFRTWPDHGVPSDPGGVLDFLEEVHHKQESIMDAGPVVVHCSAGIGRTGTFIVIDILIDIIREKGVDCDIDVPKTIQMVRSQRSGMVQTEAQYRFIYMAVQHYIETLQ

Test [2] concerns the target T1, SHP2. Kind of test: DiFMUP fluorogenic phosphatase assay at […]. It is filed as biochemical.

Consider `Cc1cc(=O)oc2c(F)c(OP(=O)(O)O)c(F)cc12` [DiFMUP], for which the Michaelis-Menten constant (Km) at SHP2 [1] came to 70 µM.

`CC1(C)CC[C@]2(C(=O)O)CC[C@]3(C)C(=CC[C@@H]4[C@@]5(C)CC[C@H](O)C(C)(C)[C@@H]5CC[C@]43C)[C@@H]2C1` [oleanolic acid]: the “DiFMUP fluorogenic phosphatase assay at 20 μM” value on SHP2 [2] was “Echinocystic and oleanolic acids selectively inhibited SHP1 and SHP2 over the other PTPs tested”.
